molecular target: T1, P2X3 (UniProt P56373); experiment: P2X3 FLIPR intracellular calcium assay; format: cell-based; conditions: agonist at EC75, species (human or rat) not given
T1 sequence (P56373 1-397): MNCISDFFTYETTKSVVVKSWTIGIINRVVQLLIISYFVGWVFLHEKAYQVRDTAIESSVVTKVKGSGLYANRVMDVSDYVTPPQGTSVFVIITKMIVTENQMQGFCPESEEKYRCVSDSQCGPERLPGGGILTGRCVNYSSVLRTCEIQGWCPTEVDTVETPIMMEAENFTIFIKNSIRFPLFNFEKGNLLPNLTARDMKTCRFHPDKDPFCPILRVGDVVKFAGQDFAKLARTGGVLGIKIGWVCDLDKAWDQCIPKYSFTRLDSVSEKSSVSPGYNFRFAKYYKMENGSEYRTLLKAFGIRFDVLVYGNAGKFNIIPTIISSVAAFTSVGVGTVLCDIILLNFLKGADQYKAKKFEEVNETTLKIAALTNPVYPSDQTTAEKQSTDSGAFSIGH
In short: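 Human P2X3-HEK, human P2X2/3-TRex293, rat P2X2/3-TRex293 or rat P2X3 TRex-CHO cells loaded with Calcium 4 dye (1.8 mM probenecid, pH 7.4).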

IC50, 1 to 100 nM:
CCc1cnnn1-c1cc(C(=O)NCc2ccc(C)nc2)cn2c(-c3ccc(C)s3)cnc12 [Example 22]
C[C@H](NC(=O)c1cc(-n2nncc2C(F)F)c2ncc(-c3ccc(Cl)s3)n2c1)c1nnc[nH]1 [Example 38]
CC[C@H](NC(=O)c1cc(-n2nncc2C(F)F)c2ncc(-c3ccc(C)s3)n2c1)c1nnc[nH]1 [Example 52]
